Results on 3 compounds are retold here after patent US11655994B2, “Antimicrobial composition including an acyl lactylate and a glycol and methods of inhibiting microbial growth utilizing the same” (Kimberly-Clark Worldwide, Inc., priority 2017, dated 2023).

The data set can be described thus: Brookfield viscosity of acyl lactylates alone and 1:1 with glycols. In kind it is physicochemical. The following applies: Brookfield 95, 5 RPM, 25° C.; acyl lactylate alone. The source says: An advantage of compositions including an acyl lactylate and a glycol is the reduction of viscosity that is present in acyl lactylates, which is rather high and increases difficulty in processing. […] Of course, it is expected that a lowering of viscosity of the acyl lactylates would be realized in ratios of acyl lactylates:glycols other than 1:1 as well.
As for Sodium Caproyl/Lauroyl Lactylate, the Viscosity is 1,192,000 cP.
As for `CCCCCCCCCCCC(=O)OC(C)C(=O)OC(C)C(=O)[O-].[Na+]` (stereo not drawn) [Sodium Lauroyl Lactylate], the Viscosity was 1,520,000 cP.
The figure for Sodium Isostearoyl Lactylate is 1,080,000 cP.
